Laboratory results: US4521339A, “Ansatrienols” (Nisshin Flour Milling Co., Ltd., priority 1981, dated 1985)
≈ marks a conversion by molar mass, not a printed value. Entries after “also recorded” stand apart in the source; their conditions may differ.

How the values were obtained:
[1] = Solubility in solvents; conditions: for Solubility in solvents: organic solvents; for Soluble in (continued line of the solubility entry): organic solvents in which the substance is soluble, continuation line
[2] = tested on: several types of tumor cells; assay: Growth inhibition of several types of tumor cells; format: cell-based; conditions: statement in words
[3] = tested on: L-5178Y lymphoma cells; assay: Anti-tumor activity (in vitro) against L-5178Y lymphoma cells; format: cell-based; conditions: statement in words
Description: The cell growth was observed by a dilution method using an Eagle-NEM medium (Nissui) supplemented with 10% horse serum and 100 mg/l asparagine and cultivated at 37° C. for 120 hours. The T-23-I substance in ethanol solution was added to an assay system.
The cell growth was observed by a dilution method using an Eagle-NEM medium (Nissui) supplemented with 10% horse serum and 100 mg/l asparagine and cultivated at 37° C. for 120 hours. The T-23-II substance in ethanol solution was added to an assay system.

[4] = tested on: Saccharomyces cerevisiae (IFO 0304); assay: Antimicrobial activity (MIC, dilution method); format: cell-based; conditions: IFO0304, 30° C., 72 hours, read-out: MIC (minimum inhibitory concentration)
Description: (§1) The MIC (minimum inhibitory concentration) value of the T-23-I substance was determined by cultivation of a microorganism in a medium containing 1.0% glucose and 0.2% malt extract at 30° C. for 72 hours by a dilution method.
(§2) The MIC (minimum inhibitory concentration) value of the T-23-II substance was determined by cultivation of a microorganism in a medium containing 1.0% glucose and 0.2% malt extract at 30° C. for 72 hours by a dilution method.

[5] = tested on: Aspergillus japonicus (IAM 2016); assay: Antimicrobial activity (MIC, dilution method); format: cell-based; conditions: IAM2016, 30° C., 72 hours, read-out: MIC (minimum inhibitory concentration)
Description: as §1, §2

[6] = tested on: Mucor pusillus (IAM 6122); assay: Antimicrobial activity (MIC, dilution method); format: cell-based; conditions: Rhizomucor pusillus, IAM6122, 30° C., 72 hours, read-out: MIC (minimum inhibitory concentration)
Description: as §1, §2

[7] = tested on: Candida utilis (IFO 0396); assay: Antimicrobial activity (MIC, dilution method); format: cell-based; conditions: Williopsis jadinii, IFO0396, 30° C., 72 hours, read-out: MIC (minimum inhibitory concentration)
Description: as §1, §2

[8] = tested on: Penicillium chrysogenum (IAM 7106); assay: Antimicrobial activity (MIC, dilution method); format: cell-based; conditions: IAM7106, 30° C., 72 hours, read-out: MIC (minimum inhibitory concentration)
Description: as §1, §2

[9] = tested on: Saccharomyces rouxii (IFO 0505); assay: Antimicrobial activity (MIC, dilution method); format: cell-based; conditions: Zygosaccharomyces rouxii, IFO0505, 30° C., 72 hours, read-out: MIC (minimum inhibitory concentration)
Description: as §1, §2

[10] = Acute toxicity; conditions: mouse, in vivo, ip
[11] = tested on: mouse leukemia P-388; assay: Anti-tumor activity against mouse leukemia P-388 (life span of mice); format: in vivo; conditions: CDF1 mice
Description: (§3) To six CDF1 male mice (20±1 g) of one group, 10^6 ascites tumor P-388 cells were transplanted intraperitoneally. The test material was administered first 24 hours and then 120 hours after transplantation. The dose of the test material suspended in gum arabic was 0.2 ml for each time. Increased life span was expressed in terms of % of the life span of the control group (administered with a gum arabic suspension).
as §3, with “after transplantation of” for “and”, “six times every 24 hours.” for “120 hours after transplantation.”

[12] = tested on: mouse sarcoma 180; assay: Anti-tumor activity against mouse sarcoma 180 (life span of mice); format: in vivo; conditions: ICR mice
Description: To six ICR male mice (25±1 g) of one group, 10^6 sarcoma 180 ascites tumor cells were transplanted intraperitoneally. The test material was administered first three hours after transplantation and then four times every 24 hours. The dose of the test material (T-23-II substance) suspended in gum arabic was 0.2 ml for each time. Increased life span was expressed in terms of % of the life span of the control group (administered with a gum arabic suspension).

Compound	Solubility in solvents [1]	Soluble in (continued line of the solubility entry) [1]	Solubility in water [1]	inhibition of the growth of several types of tumor cells [2]	inhibition of the growth of L-5178Y lymphoma cells [3]	MIC [4] [µg/mL]	MIC [5] [µg/mL]	MIC [6] [µg/mL]	MIC [7] [µg/mL]	MIC [8] [µg/mL]	MIC [9] [µg/mL]	LD50 [10] [mg/kg]	other results
COC1C=CC=CC=CCC(OC(=O)[C@@H](C)NC(=O)C2CCCCC2)C(C)C(O)C(C)=CCCC2=CC(=O)C=C(NC(=O)C1)C2=O (stereo partly shown) [T-23-I substance]	soluble in higher alcohols, acetone, chloroform, benzene and ethylacetate; also recorded: Soluble in methanol, ethanol, acetone; also recorded: Sparingly soluble in benzene and ether; also recorded: Insoluble in water, petroleum ether and hexane	chloroform and ethyl acetate	Insoluble in water	some significant effect to inhibit the growth of several types of tumor cells	effective to inhibit the growth of L-5178Y lymphoma cells	4 (≈ 6.28 µM)	12.5 (≈ 19.6 µM)	12.5 (≈ 19.6 µM)	4 (≈ 6.28 µM)	8 (≈ 12.6 µM)	4 (≈ 6.28 µM)	55.9	Increased life span T/C ([11]; 0.75 mg/kg/day × 2 times): 105.7%; Increased life span T/C ([11]; 1.5 mg/kg/day × 2 times): 107.3%; Increased life span T/C ([11]; 3 mg/kg/day × 2 times): 105.7%; Increased life span T/C ([11]; 6 mg/kg/day × 2 times): 120.2%; Increased life span T/C ([11]; 12 mg/kg/day × 2 times): 123.3%; Increased life span T/C ([11]; 24 mg/kg/day × 2 times): 56.0%
COC1C=CC=CC=CCC(OC(=O)[C@@H](C)NC(=O)C2CCCCC2)C(C)C(O)C(C)=CCCc2cc(O)cc(c2O)NC(=O)C1 (stereo partly shown) [T-23-II substance]	soluble in higher alcohols, acetone, chloroform, benzene and ethylacetate; also recorded: Soluble in chloroform, methanol, ethanol; also recorded: Sparingly soluble in benzene and ether; also recorded: Insoluble in water, petroleum ether and hexane	acetone and ethyl acetate	Insoluble in water	some significant effect to inhibit the growth of several types of tumor cells	effective to inhibit the growth of L-5178Y lymphoma cells	4 (≈ 6.26 µM)	12.5 (≈ 19.6 µM)	12.5 (≈ 19.6 µM)	4 (≈ 6.26 µM)	12.5 (≈ 19.6 µM)	4 (≈ 6.26 µM)	85.5	Increased life span T/C ([12]; 0.7 mg/kg/day × 4 times): 109.6%; Increased life span T/C ([12]; 2.2 mg/kg/day × 4 times): 95.6%; Increased life span T/C ([12]; 6.6 mg/kg/day × 4 times): 115.0%; Increased life span T/C ([12]; 20 mg/kg/day × 4 times): 138.7%; Increased life span T/C ([11]; 1.25 mg/kg/day × 6 times): 130.0%; Increased life span T/C ([11]; 2.5 mg/kg/day × 6 times): 109.9%; Increased life span T/C ([11]; 5 mg/kg/day × 6 times): 127.1%; Increased life span T/C ([11]; 10 mg/kg/day × 6 times): 120.2%; Increased life span T/C ([11]; 20 mg/kg/day × 6 times): 135.7%
COC1C=CC=CC=CCC(O)C(C)C(O)C(C)=CCCC2=CC(=O)C=C(NC(=O)C1)C2=O (stereo not shown) [T-23-III substance]	Soluble in chloroform, ethyl acetate, methanol; also recorded: Sparingly soluble in ethyl ether; also recorded: Insoluble in petroleum ether and water	toluene	Insoluble	some significant effect to inhibit the growth of several types of tumor cells	–	–	–	–	–	–	–	~250	–
COC1C=CC=CC=CCC(O)C(C)C(O)C(C)=CCCc2cc(O)cc(c2O)NC(=O)C1 (stereo not shown) [T-23-IV substance]	Soluble in chloroform, ethyl acetate, methanol; also recorded: Sparingly soluble in benzene and toluene; also recorded: Insoluble in petroleum ether and water	ethanol, acetone and acetonitrile	Insoluble	some significant effect to inhibit the growth of several types of tumor cells	–	–	–	–	–	–	–	~280	–
